Test results: ChEMBL document CHEMBL5154826, “Discovery of the Clinical Candidate MAK683: An EED-Directed, Allosteric, and Selective PRC2 Inhibitor for the Treatment of Advanced Malignancies” (J Med Chem, 2022)
Converted amounts (≈) assume the structure as drawn.

Assays:
[1] = target: Cytochrome P450 3A5 (Homo sapiens, UniProt P20815); test: Inhibition of CYP3A5 in human liver microsomes by LC-MS/MS analysis; assay type: ADME, Microsome
[2] = Ratio of drug level in dog blood to plasma; assay type: ADME, cell-free, Canis lupus familiaris; conditions: whole blood
[3] = target: Cytochrome P450 2C9 (Homo sapiens, UniProt P11712); test: Inhibition of CYP2C9 human liver microsomes using diclofenac as substrate incubated for 15 mins by LC-MS/MS analysis; assay type: ADME, Microsome
[4] = Plasma clearance in dog; assay type: ADME, cell-free, Canis lupus familiaris
[5] = Antitumor activity against human Karpas-422 cells xenografted Athymic BALB/c nude mouse assessed as minimum effective dose administered twice a day for 30 days; assay type: functional; conditions: KARPAS-422, 720 h, time 30 day, read-out: MED
[6] = Lipophilicity, logD of the compound at pH 7.4 by LC with tandem MS analysis; assay type: physicochemical; conditions: buffer
[7] = Terminal half life in wild type Beagle dog at 2 mg/kg, po or 1 mg/kg, iv after 1 week by LC-MS/MS analysis; assay type: ADME, organism-based, Canis lupus familiaris; conditions: in vivo, time 1 weeks, read-out: beta t1/2 (converted)
[8] = Volume of distribution at steady state in wild type Beagle dog at 2 mg/kg, po or 1 mg/kg, iv after 1 week by LC-MS/MS analysis; assay type: ADME, organism-based, Canis lupus familiaris; conditions: in vivo, 168 h, time 1 weeks
[9] = Genotoxicity in Salmonella typhimurium TA98 in presence of S9 fraction by Ames test; assay type: toxicity, subcellular; conditions: salmonella enterica subsp. enterica serovar typhimurium
[10] = Unbound plasma concentration in Athymic BALB/c nude mouse xenografted with human Karpas-422 cells at 10 to 300 mg/kg, po after 12 hrs by HPLC-MS/MS analysis; assay type: ADME, organism-based; conditions: in vivo, dose 10-300 mg/kg
[11] = target: Cytochrome P450 3A4 (Homo sapiens, UniProt P08684); test: Inhibition of CYP3A4 in human liver microsomes using midazolam as substrate incubated for 10 mins in presence of NADPH by LC-MS/MS analysis; assay type: ADME, Microsome
[12] = In vivo inhibition of PRC2 in PBMC collected from human Karpas-422 cells xenografted Athymic NTac:NIH-Whn nude rat assessed as reduction in H3K27me3 level at 0.3 mg/kg, po, qd for 52 days measured after 4 hrs of last dose by FACS method; assay type: functional; design: scale not given: the % may be the effect or the level left; conditions: time 52 day
[13] = Antitumor activity against human Karpas-422 cells xenografted Athymic BALB/c nude mouse assessed as inhibition of tumor growth at 3 to 100 mg/kg, po bid, for 30 days treatment started at twenty fifth day after cancer cell implantation and followed by stop dosing measured upto 70 days; assay type: functional; design: scale not given: the % may be the effect or the level left; conditions: dose 3-100 mg/kg, time 30 day
[14] = Permeability across apical to basolateral side in human Caco-2 cells at 10 uM incubated for 2 hrs by LC/MS/MS analysis; assay type: ADME, cell-based; conditions: caco-2, 2 h, 10 µM
[15] = Plasma clearance in human assessed as hepatic extraction; assay type: ADME, cell-free
[16] = Mutagenecity in Salmonella typhimurium TA98 by Ames test; assay type: toxicity; conditions: salmonella enterica subsp. enterica serovar typhimurium
[17] = In vivo inhibition of PRC2 in PBMC collected from human Karpas-422 cells xenografted Athymic NTac:NIH-Whn nude rat assessed as reduction in H3K27me3 level at 10 mg/kg, po, qd for 42 days measured after 4 hrs of last dose by FACS method; assay type: functional; design: scale not given: the % may be the effect or the level left; conditions: time 42 day
[18] = Intrinsic clearance in rat hepatocytes measured per 10^6 cells; assay type: ADME, cell-based, Hepatocyte; conditions: read-out: CLH
[19] = Dissociation constant, pKa of compound; assay type: physicochemical
[20] = Ratio of drug level in mouse blood to plasma; assay type: ADME, cell-free
[21] = target: T1, Voltage-gated inwardly rectifying potassium channel KCNH2 (Homo sapiens, UniProt Q12809); test: Inhibition of hERG potassium channel in HEK293 cells by manual patch clamp assay; assay type: toxicity, cell-based
[22] = Metabolic stability in mouse microsomes assessed as intrinsic clearance; assay type: ADME, Microsome; conditions: read-out: CLH
[23] = Plasma clearance in rat; assay type: ADME, cell-free
[24] = Intrinsic clearance in dog hepatocytes measured per 10^6 cells; assay type: ADME, cell-based, Canis lupus familiaris, Hepatocyte; conditions: read-out: CLH
[25] = target: T1, Voltage-gated inwardly rectifying potassium channel KCNH2; test: Inhibition of hERG potassium channel in HEK293 cells by Q-patch clamp assay; assay type: toxicity, cell-based
[26] = Terminal half life in Sprague-Dawley rat at 2 mg/kg, po or 1 mg/kg, iv after 1 week by LC-MS/MS analysis; assay type: ADME, organism-based; conditions: in vivo, time 1 weeks, read-out: beta t1/2 (converted)
[27] = Intrinsic clearance in mouse hepatocytes measured per 10^6 cells; assay type: ADME, cell-based, Hepatocyte; conditions: read-out: CLH
[28] = Permeability across basolateral to apical side in human Caco-2 cells incubated for 2 hrs by LC/MS/MS analysis; assay type: ADME, cell-based; conditions: read-out: permeability
[29] = Plasma protein binding in human at 1 uM measured after 6 hrs LC-MS/MS analysis; assay type: ADME, cell-free; conditions: read-out: PPB (converted)
[30] = Oral biovailability in Beagle dog at 2 mg/kg, po; assay type: ADME, organism-based, Canis lupus familiaris; conditions: in vivo
[31] = target: Synaptic vesicular amine transporter (Homo sapiens, UniProt Q05940); test: Inhibition of vesicular monoamine transporter 2 (unknown origin)
[32] = Dose normalized AUC in ICR (CD-1) mouse at 2 mg/kg, po or 1 mg/kg, iv after 1 week by LC-MS/MS analysis; assay type: ADME, organism-based; conditions: in vivo, 168 h, time 1 weeks
[33] = target: Cytochrome P450 2D6 (Homo sapiens, UniProt P10635); test: Inhibition of CYP2D6 in human liver microsomes using bufuralol as substrate incubated for 10 mins in presence of NADPH by LC-MS/MS analysis; assay type: ADME, Microsome
[34] = High throughput solubility of the compound in FeSSIF after 16 to 24 hrs by MS/MS analysis; assay type: physicochemical; conditions: time 16-24 hrs
[35] = Oral bioavailability in Sprague-Dawley rat at 2 mg/kg; assay type: ADME, organism-based; conditions: in vivo
[36] = Toxicity in rat assessed as effect on adrenal gland; conditions: in vivo
[37] = Plasma clearance in rat assessed as hepatic extraction; assay type: ADME, cell-free; conditions: read-out: ERH
[38] = Plasma clearance in mouse; assay type: ADME, cell-free
[39] = Reduction of H3K27me3 level in human Karpas-422 cells xenografted Athymic BALB/c nude mouse tumor assessed at 10 mg/kg, po twice a day for 21 days; assay type: functional; design: scale not given: the % may be the effect or the level left; conditions: time 21 day
[40] = test system: NIH3T3; test: Phototoxicity in mouse 3T3 cells by neutral red uptake assay; assay type: toxicity, cell-based
[41] = Oral biovailability in ICR (CD-1) mouse at 2 mg/kg, po; assay type: ADME, organism-based; conditions: in vivo
[42] = Dose normalized Cmax in wild type Beagle dog at 2 mg/kg, po or 1 mg/kg, iv after 1 week by LC-MS/MS analysis; assay type: ADME, organism-based, Canis lupus familiaris; conditions: in vivo, 168 h, time 1 weeks
[43] = Plasma protein binding in dog at 1 uM measured after 6 hrs LC-MS/MS analysis; assay type: ADME, cell-free, Canis lupus familiaris; conditions: read-out: PPB (converted)
[44] = Toxicity in Athymic BALB/c nude mouse xenografted with human Karpas-422 cells assessed as tolerability by measuring body weight at 10 to 300 mg/kg, po twice a day for 30 days; assay type: organism-based; conditions: in vivo, 720 h, dose 10-300 mg/kg, time 30 day
[45] = Toxicity in Athymic NTac:NIH-Whn nude rat xenografted with human Karpas-422 cells assessed as reduction in body weight at 60 mg/kg, po, qd measured upto 140 days; assay type: organism-based; conditions: in vivo, 3360 h, time < 140 day
[46] = High throughput solubility of the compound at pH 1 after 16 to 24 hrs by MS/MS analysis; assay type: physicochemical; conditions: buffer, time 16-24 hrs

T1 sequence (Q12809 whole entry): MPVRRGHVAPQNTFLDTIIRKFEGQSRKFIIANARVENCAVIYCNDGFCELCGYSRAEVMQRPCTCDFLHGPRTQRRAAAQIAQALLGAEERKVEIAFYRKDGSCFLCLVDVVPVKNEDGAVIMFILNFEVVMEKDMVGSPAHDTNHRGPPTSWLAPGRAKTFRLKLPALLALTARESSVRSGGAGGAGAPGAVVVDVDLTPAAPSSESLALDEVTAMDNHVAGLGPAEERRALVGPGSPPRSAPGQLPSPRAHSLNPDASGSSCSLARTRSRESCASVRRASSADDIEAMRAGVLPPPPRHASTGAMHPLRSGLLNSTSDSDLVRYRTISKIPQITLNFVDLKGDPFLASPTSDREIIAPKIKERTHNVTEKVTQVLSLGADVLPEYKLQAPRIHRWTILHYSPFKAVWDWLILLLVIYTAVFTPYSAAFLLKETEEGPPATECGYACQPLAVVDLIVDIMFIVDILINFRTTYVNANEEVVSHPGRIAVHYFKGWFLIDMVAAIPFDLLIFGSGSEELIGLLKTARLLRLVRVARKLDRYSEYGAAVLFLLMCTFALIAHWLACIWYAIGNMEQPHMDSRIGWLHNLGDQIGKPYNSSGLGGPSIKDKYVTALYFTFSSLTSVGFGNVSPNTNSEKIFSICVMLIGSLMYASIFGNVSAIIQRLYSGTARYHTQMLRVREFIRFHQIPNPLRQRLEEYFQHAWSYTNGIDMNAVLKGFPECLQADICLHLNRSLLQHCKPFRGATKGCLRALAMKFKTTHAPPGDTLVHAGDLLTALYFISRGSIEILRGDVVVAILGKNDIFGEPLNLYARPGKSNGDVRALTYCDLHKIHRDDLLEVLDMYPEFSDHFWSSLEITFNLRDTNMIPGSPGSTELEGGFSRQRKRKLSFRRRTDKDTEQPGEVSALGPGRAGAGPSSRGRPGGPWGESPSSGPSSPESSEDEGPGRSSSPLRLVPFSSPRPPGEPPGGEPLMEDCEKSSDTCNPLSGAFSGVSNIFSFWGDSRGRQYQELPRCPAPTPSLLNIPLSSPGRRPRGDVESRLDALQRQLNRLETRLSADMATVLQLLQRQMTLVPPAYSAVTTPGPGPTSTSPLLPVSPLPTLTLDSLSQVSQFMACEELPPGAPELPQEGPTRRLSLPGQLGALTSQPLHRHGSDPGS
Synaptic vesicular amine transporter, sequence (Q05940 whole entry): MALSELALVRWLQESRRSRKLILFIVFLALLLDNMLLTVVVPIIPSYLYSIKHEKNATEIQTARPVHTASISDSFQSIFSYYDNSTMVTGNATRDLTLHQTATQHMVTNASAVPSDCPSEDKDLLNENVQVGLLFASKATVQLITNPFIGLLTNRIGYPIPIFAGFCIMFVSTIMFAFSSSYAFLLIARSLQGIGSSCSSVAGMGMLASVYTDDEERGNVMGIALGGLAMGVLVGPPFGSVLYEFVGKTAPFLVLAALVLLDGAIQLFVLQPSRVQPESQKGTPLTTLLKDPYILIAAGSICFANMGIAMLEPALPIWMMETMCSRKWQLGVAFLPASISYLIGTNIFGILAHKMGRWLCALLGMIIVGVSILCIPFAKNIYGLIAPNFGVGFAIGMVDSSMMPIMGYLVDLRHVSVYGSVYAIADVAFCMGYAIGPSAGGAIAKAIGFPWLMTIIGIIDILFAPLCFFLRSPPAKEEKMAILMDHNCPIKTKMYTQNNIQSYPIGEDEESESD
Cytochrome P450 3A4, sequence (P08684 whole entry): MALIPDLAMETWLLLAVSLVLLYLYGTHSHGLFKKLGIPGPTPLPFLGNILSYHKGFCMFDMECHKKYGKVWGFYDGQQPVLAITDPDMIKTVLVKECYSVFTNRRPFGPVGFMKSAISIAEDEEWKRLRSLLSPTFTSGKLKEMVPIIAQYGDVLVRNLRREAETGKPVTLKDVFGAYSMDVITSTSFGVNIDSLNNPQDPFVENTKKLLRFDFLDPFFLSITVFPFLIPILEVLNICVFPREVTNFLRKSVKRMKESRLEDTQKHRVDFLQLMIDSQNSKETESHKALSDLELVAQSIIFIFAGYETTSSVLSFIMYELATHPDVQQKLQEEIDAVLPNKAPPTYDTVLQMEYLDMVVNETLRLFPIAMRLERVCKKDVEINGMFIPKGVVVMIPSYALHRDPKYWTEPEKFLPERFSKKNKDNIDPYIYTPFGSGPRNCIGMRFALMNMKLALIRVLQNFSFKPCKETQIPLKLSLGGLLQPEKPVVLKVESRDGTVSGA
Cytochrome P450 2D6, sequence (P10635 whole entry): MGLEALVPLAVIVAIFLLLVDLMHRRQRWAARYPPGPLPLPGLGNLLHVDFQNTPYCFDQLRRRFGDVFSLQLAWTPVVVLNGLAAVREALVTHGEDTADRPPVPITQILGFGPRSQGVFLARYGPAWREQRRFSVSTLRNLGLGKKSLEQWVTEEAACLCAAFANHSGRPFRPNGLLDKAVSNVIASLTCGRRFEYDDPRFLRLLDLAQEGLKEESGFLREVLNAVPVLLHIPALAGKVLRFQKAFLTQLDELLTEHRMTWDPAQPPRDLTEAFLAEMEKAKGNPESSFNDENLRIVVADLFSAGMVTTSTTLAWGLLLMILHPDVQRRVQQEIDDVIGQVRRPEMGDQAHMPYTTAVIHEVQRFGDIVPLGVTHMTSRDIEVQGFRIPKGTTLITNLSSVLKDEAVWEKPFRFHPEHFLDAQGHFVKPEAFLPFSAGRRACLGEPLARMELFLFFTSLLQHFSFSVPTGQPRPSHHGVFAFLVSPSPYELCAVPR
Cytochrome P450 2C9, sequence (P11712 whole entry): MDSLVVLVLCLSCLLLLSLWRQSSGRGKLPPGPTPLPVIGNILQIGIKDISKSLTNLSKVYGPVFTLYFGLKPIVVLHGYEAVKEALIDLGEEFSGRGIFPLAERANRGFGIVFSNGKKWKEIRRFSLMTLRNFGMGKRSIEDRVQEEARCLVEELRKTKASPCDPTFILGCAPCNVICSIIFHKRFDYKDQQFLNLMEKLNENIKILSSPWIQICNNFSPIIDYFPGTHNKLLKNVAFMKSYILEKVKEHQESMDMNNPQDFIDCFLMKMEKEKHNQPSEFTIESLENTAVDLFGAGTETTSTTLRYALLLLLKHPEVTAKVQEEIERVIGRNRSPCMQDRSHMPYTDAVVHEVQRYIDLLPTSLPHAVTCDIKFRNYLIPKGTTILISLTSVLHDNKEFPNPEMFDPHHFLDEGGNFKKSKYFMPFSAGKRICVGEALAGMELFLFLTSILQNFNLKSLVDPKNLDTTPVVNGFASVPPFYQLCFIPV
Cytochrome P450 3A5, sequence (P20815 whole entry): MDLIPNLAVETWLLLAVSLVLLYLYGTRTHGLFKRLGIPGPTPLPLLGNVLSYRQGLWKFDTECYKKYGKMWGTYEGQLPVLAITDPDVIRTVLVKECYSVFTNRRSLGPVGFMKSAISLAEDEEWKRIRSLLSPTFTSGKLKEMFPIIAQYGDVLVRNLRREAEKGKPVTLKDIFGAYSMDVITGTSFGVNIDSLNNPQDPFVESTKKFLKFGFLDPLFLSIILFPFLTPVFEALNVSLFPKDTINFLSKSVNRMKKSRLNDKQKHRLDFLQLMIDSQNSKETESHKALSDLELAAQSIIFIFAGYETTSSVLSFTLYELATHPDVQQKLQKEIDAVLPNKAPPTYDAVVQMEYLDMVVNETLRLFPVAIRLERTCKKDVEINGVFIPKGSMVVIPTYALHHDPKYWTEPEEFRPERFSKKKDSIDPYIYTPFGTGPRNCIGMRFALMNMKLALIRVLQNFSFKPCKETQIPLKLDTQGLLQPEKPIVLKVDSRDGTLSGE

Cc1ncccc1-c1cnc(NCc2c(F)ccc3c2CCO3)n2cnnc12
IC50 [1]: > 18 µM | blood plasma ratio [2]: 0.72 | IC50 [3]: > 18 µM | clearance [4]: 13 mL/min/kg | minimal effective dose [5]: 3 mg/kg | logD [6]: 3.88 | half-life [7]: 1.2 h | Vdss [8]: 1 L/kg | Activity [9]: Non-Toxic | Cp(f) [10]: 8 nM | IC50 [11]: > 20 µM | Activity [12]: 20% | Activity [13]: 100% | permeability [14]: 2.8 10^-6 cm/s | CLH [15]: 1.6 mL/min/kg | Activity [16]: Non-Toxic | Activity [17]: 97% | hepatocyte CLint [18]: 12 µL/min/1e6 cells | pKa [19]: 5.2 | blood plasma ratio [20]: 1.03 | IC50 [21]: > 30 µM | microsomal CLint [22]: 22 µL/min/mg | clearance [23]: 10 mL/min/kg | hepatocyte CLint [24]: 4.8 µL/min/1e6 cells | IC50 [25]: > 30 µM | half-life [26]: 3.2 h | hepatocyte CLint [27]: 3.9 µL/min/1e6 cells | Papp B→A at 2 h [28]: 37 ×10⁻⁶ cm/s | fraction unbound at 6 h, 1 µM [29]: 0.08 | bioavailability [30]: 73% | IC50 [31]: 1.8 µM | AUC/dose [32]: 884 nM·h | IC50 [33]: > 20 µM | solubility [34]: 57 µM (≈ 21.5 µg/mL) | bioavailability [35]: 69% | Activity [36]: Non-Toxic | hepatic extraction ratio [37]: 0.18 | clearance [38]: 38 mL/min/kg | Activity [39]: >50% | Activity [40]: Non-Toxic | bioavailability [41]: 77% | Cmax/dose [42]: 400 nM | fraction unbound at 6 h, 1 µM [43]: 0.09 | Activity [44]: Non-Toxic | Activity [45]: Toxic | solubility [46]: > 13000 µM
